25 compounds from US20250214942A1, “INHIBITORS OF RECEPTOR INTERACTING PROTEIN KINASE I FOR THE TREATMENT OF DISEASE” (Board of Regents, The University of Texas System, priority 2019, published 2025) can be followed below.

pIC50: −log10 of the molar value.

Sequence of RIPK1 (Q13546 1-327): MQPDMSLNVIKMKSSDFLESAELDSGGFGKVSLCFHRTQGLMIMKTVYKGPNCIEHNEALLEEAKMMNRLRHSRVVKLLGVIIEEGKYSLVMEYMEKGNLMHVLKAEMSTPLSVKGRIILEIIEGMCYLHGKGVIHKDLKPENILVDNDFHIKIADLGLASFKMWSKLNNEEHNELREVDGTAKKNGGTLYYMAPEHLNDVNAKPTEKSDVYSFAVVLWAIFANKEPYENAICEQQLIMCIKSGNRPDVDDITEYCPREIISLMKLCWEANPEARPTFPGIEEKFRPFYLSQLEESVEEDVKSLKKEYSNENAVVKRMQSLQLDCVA

The first assay relates to human monocytic cell line U937. Description: Human U937 cellular necroptosis assay (TNFalpha + z-VAD-FMK, Cell Titer-Glo viability). The note with it: Homo sapiens, U-937, 22 h, U937 cells, 25 ng/mL human TNFalpha + 25 μM z-VAD-FMK, read-out: hU937 Avg IC50. The assay is classed as cell-based. An outline of the steps: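 Cells resuspended in phenol red-free RPMI with 10% FBS, stimulated with 25 ng/mL human TNFalpha plus 25 μM z-VAD-FMK, then given serially diluted compound for 22 h at 37° C, 5% CO2. Viability by Cell Titer-Glo 2.0 luminescence; IC50 from four-parameter logistic fit, averaged across runs.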
For orientation: Cellular ATP, detected with luciferase, serves as a proxy for viable cell number.
As usually defined, the pIC50 is the negative decadic logarithm of the IC50, by convention in mol/L. As to `N#Cc1cnc(OCC23CC(C(=O)N4N=CCC4c4cccc(F)c4F)(C2)C3)cn1` (stereo not shown) [Example 306, 5-((3-(5-(2,3-difluorophenyl)-4,5-dihydro-1H-pyrazole-1-carbonyl)bicyclo[1.1.1]pentan-1-yl)methoxy)pyrazine-2-carbonitrile], the pIC50 is 8.18.

For `N#Cc1cnc(OCC23CC(C(=O)N4N=CCC4c4c(F)cccc4F)(C2)C3)cn1` (stereo not shown) [Example 307, 5-((3-(5-(2,6-difluorophenyl)-4,5-dihydro-1H-pyrazole-1-carbonyl)bicyclo[1.1.1]pentan-1-yl)methoxy)pyrazine-2-carbonitrile], the pIC50 is 8.06. The same measure, in the same setting: next, `N#Cc1ccc(OCC23CC(C(=O)N4N=CCC4c4cc(F)ccc4F)(C2)C3)nc1` (stereo not shown) [Example 308, 6-((3-(5-(2,5-difluorophenyl)-4,5-dihydro-1H-pyrazole-1-carbonyl)bicyclo[1.1.1]pentan-1-yl)methoxy)nicotinonitrile]: 7.96; `Cc1ccc(C2CC=NN2C(=O)C23CC(Cn4ncc5cc(C#N)ccc54)(C2)C3)cc1` (stereo not shown) [Example 309, 1-((3-(5-(p-tolyl)-4,5-dihydro-1H-pyrazole-1-carbonyl)-bicyclo[1.1.1]pentan-1-yl)-methyl)-1H-indazole-5-carbonitrile]: 7.89. Take `N#Cc1cnc(OCC23CC(C(=O)N4N=CCC4c4ccc(Cl)cc4)(C2)C3)cn1` (stereo not shown) [Example 310, 5-((3-(5-(4-chlorophenyl)-4,5-dihydro-1H-pyrazole-1-carbonyl)bicyclo[1.1.1]pentan-1-yl)methoxy)pyrazine-2-carbonitrile]: the pIC50 was 7.66. The same measure, in the same setting: next, `N#Cc1cnc(OCC23CC(C(=O)N4N=CCC4c4cccc(Cl)c4Cl)(C2)C3)cn1` (stereo not shown) [Example 311, 5-((3-(5-(2,3-dichlorophenyl)-4,5-dihydro-1H-pyrazole-1-carbonyl)bicyclo[1.1.1]pentan-1-yl)methoxy)pyrazine-2-carbonitrile]: 7.40. Same read-out and setting: next, `N#Cc1cnc(OCC23CC(C(=O)N4N=CCC4c4ccc(C(F)(F)F)cc4)(C2)C3)cn1` (stereo not shown) [Example 312, 5-((3-(5-(4-(trifluoromethyl)-phenyl)-4,5-dihydro-1H-pyrazole-1-carbonyl)bicyclo-[1.1.1]pentan-1-yl)methoxy)-pyrazine-2-carbonitrile]: 7.21.

As for `Cc1nc(OCC23CC(C(=O)N4N=CCC4c4cnc(C#N)cn4)(C2)C3)ccc1F` (stereo not shown) [Example 313, 5-(1-(3-(((5-fluoro-6-methylpyridin-2-yl)oxy)-methyl)bicyclo[1.1.1]pentane-1-carbonyl)-4,5-dihydro-1H-pyrazol-5-yl)pyrazine-2-carbonitrile], the pIC50 was 6.60. Turning to `Cc1ccccc1C1CC=NN1C(=O)C12CC(COc3ccc(C#N)cn3)(C1)C2` (stereo not shown) [Example 314, 6-((3-(5-(o-tolyl)-4,5-dihydro-1H-pyrazole-1-carbonyl)-bicyclo[1.1.1]pentan-1-yl)-methoxy)nicotinonitrile], the pIC50 was 6.32. Same read-out and setting: the same measure for `Cc1nc(C2CC=NN2C(=O)C23CC(COc4ccc(C#N)cn4)(C2)C3)ccc1F` (stereo not shown) [Example 315, 6-((3-(5-(5-fluoro-6-methyl-pyridin-2-yl)-4,5-dihydro-1H-pyrazole-1-carbonyl)bicyclo-[1.1.1]pentan-1-yl)methoxy)-nicotinonitrile]: 6.18.

With `N#Cc1cnc(OCC23CC(C(=O)N4N=CCC4c4ncc5ccccn45)(C2)C3)cn1` (stereo not shown) [Example 316, 5-((3-(5-(imidazo[1,5-a]-pyridin-3-yl)-4,5-dihydro-1H-pyrazole-1-carbonyl)bicyclo-[1.1.1]pentan-1-yl)methoxy)-pyrazine-2-carbonitrile], the pIC50 is 6.16. For `N#Cc1cnc(OCC23CC(C(=O)N4N=CCC4c4cn5ccccc5n4)(C2)C3)cn1` (stereo not shown) [Example 317, 5-((3-(5-(imidazo[1,2-a]-pyridin-2-yl)-4,5-dihydro-1H-pyrazole-1-carbonyl)bicyclo-[1.1.1]pentan-1-yl)methoxy)-pyrazine-2-carbonitrile], the pIC50 is 5.07. On the same count and under the same terms, next, `N#Cc1cnc(OCC23CC(C(=O)N4N=CCC4c4ccccc4Cl)(C2)C3)cn1` (stereo not shown) [Example 318, 5-((3-(5-(2-chlorophenyl)-4,5-dihydro-1H-pyrazole-1-carbonyl)bicyclo[1.1.1]pentan-1-yl)methoxy)pyrazine-2-carbonitrile]: 7.26. The same measure, in the same setting: the same measure for `N#Cc1cnc(OCC23CC(C(=O)N4N=CCC4c4cc(F)cc(F)c4)(C2)C3)c(Cl)c1` (stereo not shown) [Example 319, 5-chloro-6-((3-(5-(3,5-difluorophenyl)-4,5-dihydro-1H-pyrazole-1-carbonyl)-bicyclo[1.1.1]pentan-1-yl)-methoxy)nicotinonitrile]: 7.68; for `O=C(N1N=CCC1c1cc(F)cc(F)c1)C12CC(COc3ncc(Cl)cn3)(C1)C2` (stereo not shown) [Example 322, (3-(((5-chloropyrimidin-2-yl)oxy)methyl)bicyclo[1.1.1]-pentan-1-yl)(5-(3,5-difluoro-phenyl)-4,5-dihydro-1H-pyrazol-1-yl)methanone]: 7.22; for `N#Cc1ccc(OCC23CC(C(=O)N4N=CCC4c4cc(F)cc(F)c4)(C2)C3)nn1` (stereo not shown) [Example 323, 6-((3-(5-(3,5-difluorophenyl)-4,5-dihydro-1H-pyrazole-1-carbonyl)bicyclo[1.1.1]pentan-1-yl)methoxy)pyridazine-3-carbonitrile]: 6.82. Same read-out and setting: next, `N#Cc1cnc(OCC23CC(C(=O)N4N=CCC4c4cc(F)cc(F)c4)(C2)C3)nc1` (stereo not shown) [Example 324, 2-((3-(5-(3,5-difluorophenyl)-4,5-dihydro-1H-pyrazole-1-carbonyl)bicyclo[1.1.1]pentan-1-yl)methoxy)pyrimidine-5-carbonitrile]: 6.78. As for `COc1cnnc(OCC23CC(C(=O)N4N=CCC4c4cc(F)cc(F)c4)(C2)C3)c1` (stereo not shown) [Example 329, (5-(3,5-difluorophenyl)-4,5-dihydro-1H-pyrazol-1-yl)(3-(((5-methoxypyridazin-3-yl)-oxy)methyl)bicyclo[1.1.1]-pentan-1-yl)methanone], the pIC50 is 5.89. On the same count and under the same terms, next, `N#Cc1ccc(OCC23CC(C(=O)N4N=CCC4c4cc(F)c(C5CC5)c(F)c4)(C2)C3)nc1` (stereo not shown) [Example 339, 6-((3-(5-(4-cyclopropyl-3,5-difluorophenyl)-4,5-dihydro-1H-pyrazole-1-carbonyl)-bicyclo[1.1.1]pentan-1-yl)-methoxy)nicotinonitrile]: 6.34; `N#Cc1ccc2c(cnn2CC23CC(C(=O)N4N=CCC4c4cc(F)c(C5CC5)c(F)c4)(C2)C3)c1` (stereo not shown) [Example 340, 1-((3-(5-(4-cyclopropyl-3,5-difluorophenyl)-4,5-dihydro-1H-pyrazole-1-carbonyl)-bicyclo[1.1.1]pentan-1-yl)-methyl)-1H-indazole-5-carbonitrile]: 7.27; `Cn1cc(-c2ccc(OCC34CC(C(=O)N5N=CCC5c5cc(F)cc(F)c5)(C3)C4)c(Cl)c2)cn1` (stereo not shown) [Example 341, (3-((2-chloro-4-(1-methyl-1H-pyrazol-4-yl)phenoxy)methyl)-bicyclo[1.1.1]pentan-1-yl)(5-(3,5-difluorophenyl)-4,5-dihydro-1H-pyrazol-1-yl)-methanone]: 7.64. The same measure, in the same setting: the same measure for `N#Cc1ccc(OCC23CC(C(=O)N4N=CCC4c4cc(F)c(CO)c(F)c4)(C2)C3)nc1` (stereo not shown) [Example 342, 6-((3-(5-(3,5-difluoro-4-(hydroxymethyl)phenyl)-4,5-dihydro-1H-pyrazole-1-carbonyl)bicyclo[1.1.1]pentan-1-yl)methoxy)nicotinonitrile]: 6.42; for `Cn1cc(-c2cnc(OCC34CC(C(=O)N5N=CCC5c5cc(F)cc(F)c5)(C3)C4)cn2)cn1` (stereo not shown) [Example 344, (5-(3,5-difluorophenyl)-4,5-dihydro-1H-pyrazol-1-yl)(3-(((5-(1-methyl-1H-pyrazol-4-yl)pyrazin-2-yl)oxy)methyl)-bicyclo[1.1.1]pentan-1-yl)methanone]: 7.25; for `Cc1cc(F)c(C2CC=NN2C(=O)C23CC(COc4cnc(-c5cnn(C)c5)cn4)(C2)C3)cc1F` (stereo not shown) [Example 345, (5-(2,5-difluoro-4-methylphenyl)-4,5-dihydro-1H-pyrazol-1-yl)(3-(((5-(1-methyl-1H-pyrazol-4-yl)pyrazin-2-yl)oxy)methyl)bicyclo[1.1.1]pentan-1-yl)methanone]: 7.21.

Another assay addresses RIPK1 (Homo sapiens (Human), UniProt Q13546). The assay can be described thus: ADP-Glo kinase assay (RIPK1 activity, conversion of ATP to ADP). The assay is classed as biochemical. The following applies: 5 nM RIPK1, 50 μM ATP, 6 h reaction; read-out: RIPK1 Enzyme Avg IC50. The procedure:
In order to measure RIPK1 activity the ADP-Glo kinase assay (Promega, Catalog #V7002) was used to measure the conversion of ATP to ADP. This enzymatic assay was performed in a 384-well white, Optiplate (Perkin Elmer, Catalog #6007299) with assay buffer consisting of 50 mM HEPES pH 7.5 (Gibco, Catalog #15630-080), 50 mM NaCl (Teknova, Catalog #S0252), 30 mM MgCl2 (Ambion, Catalog #AM9530G), 1 mM DTT (Santa Cruz Biotechnology, Catalog #sc-29089), 0.05% BSA (Sigma, Catalog #A3059-50G) and 0.02% CHAPS (Sigma, Catalog #C5070-5G). Stock solutions of the test compounds were prepared in 100% DMSO (Sigma, Catalog #D2650) and serially diluted 1:3 using 100% DMSO. Compounds were additionally diluted 1:40 in assay buffer, and 2 μL/well were transferred to the assay plate. 4 μL/well (final concentration of 5 nM) of RIPK1 protein (SignalChem, Catalog #R07-1IG-05) diluted in assay buffer and added to the assay plate followed by a 10 minute preincutation at rt. 4 μL/well of ATP (Promega, Catalog #V7002) (final concentration of 50 μM) diluted in assay buffer were then added to the assay plate followed by a 6 h reaction time. Final concentrations of RIPK1 and ATP refer to a 10 μL volume. Luminescence was measured using a BioTek Synergy™ NEO plate reader. IC50 values were calculated using a four-parameter logistic curve fit using Genedata Screener software.
(ADP-Glo first removes unused ATP, then detects ADP through luciferase.)
As to “1-((3-(5-(3,5-difluorophenyl)-4,5-dihydro-1H-pyrazole-1-carbonyl)bicyclo[1.1.1]-pentan-1-yl)methyl)-1H-pyrazole-3-carbonitrile and 1-((3-(5-(3,5-difluorophenyl)-4,5-dihydro-1H-pyrazole-1-carbonyl)bicyclo[1.1.1]-pentan-1-yl)methyl)-1H-pyrazole-5-carbonitrile [Example 189]”, the pIC50 was 7.57.
